For one data set, the target named is T1, human EGF-R (Homo sapiens, UniProt P00533).
T1 construct: expressed in transfected cells; host or cells: F/L-HERc cells (murine IL-3-dependent FDC-P1 line transduced with LXSN retroviral vector carrying human EGF-R cDNA; packaging line GP+E86)
Put plainly: Inhibition of EGF-dependent proliferation of F/L-HERc cells (Cell Titer 96 assay). The conditions noted are these: F/L-HERc cells (murine IL-3-dependent line expressing human EGF-R), stimulated with EGF 20 ng/ml, 48 hours. In kind it is cell-based. An excerpt: A cell line of murine origin dependent on interleukin-3-(IL-3) which was genetically modified to express functional human EGF-R was used here. The proliferation of these cells known as F/L-HERc can therefore be stimulated either by murine IL-3 or by EGF (cf. T. von Rüden et al., EMBO J. 7, 2749–2756 (1988) and J. H Pierce et al., Science 239, 628–631 (1988)).
The starting material used for the F/L-HERc cells was the cell line FDC-P1, the production of which has been described by T. M. Dexter et al., J. Exp. Med. 152, 1036–1047 (1980). Alternatively, however, other growth-factor-dependent cells may also be used (cf., for example, J. H. Pierce et al., Science 239, 628–631 (1988); H. Shibuya et al., Cell 70, 57–67 (1992); and W. S. Alexander et al., EMBO J. 10, 3683–3691 (1991)). For expressing the human EGF-R cDNA (cf. Ullrich, A. et al. in Nature 309, 418–425 (1984)) recombinant retroviruses were used as described by T. von Rüden et al., EMBO J. 7, 2749–2756 (1988), except that the retroviral vector LXSN (cf. A. D. Miller et al., BioTechniques 7, 980–990 (1989)) was used for the expression of the EGF-R cDNA and the line GP+E86 (cf. D. Markowitz et al., J. Virol. 62, 1120–1124 (1988)) was used as the packaging cell.
F/L-HERc cells were cultivated in RPMI/1640 medium (BioWhittaker), supplemented with 10% fetal calf serum (FCS, Boehringer Mannheim), 2 mM glutamine (BioWhittaker), standard antibiotics and 20 ng/ml of human EGF (Promega), at 37° C. and 5% CO2. In order to investigate the inhibitory activity of the compounds according to the invention, 1.5×10^4 cells per well were cultivated in triplicate in 96-well dishes in the above medium (200 μl), the cell proliferation being stimulated with either EGF (20 ng/ml) or murine IL-3. The IL-3 used was obtained from culture supernatants of the cell line X63/0 mIL-3 (cf. H. Karasuyama et al., Eur. J. Immunol. 18, 97–104 (1988)). The compounds according to the invention were dissolved in 100% dimethylsulfoxide (DMSO) and added to the cultures in various dilutions, the maximum DMSO concentration being 1%. The cultures were incubated for 48 hours at 37° C.
In order to determine the inhibitory activity of the compounds according to the invention the relative cell number was measured in O.D. units using the Cell Titer 96™ Aqueous Non-Radioactive Cell Proliferation Assay (Promega). The relative cell number was calculated as a percentage of the control (F/LHERc cells without inhibitor) and the concentration of active substance which inhibits the proliferation of the cells by 50% (IC50) was derived therefrom.

pIC50: −log10 of the molar value. Bounds are passed on as bounds.

T1 sequence (P00533 25-1210): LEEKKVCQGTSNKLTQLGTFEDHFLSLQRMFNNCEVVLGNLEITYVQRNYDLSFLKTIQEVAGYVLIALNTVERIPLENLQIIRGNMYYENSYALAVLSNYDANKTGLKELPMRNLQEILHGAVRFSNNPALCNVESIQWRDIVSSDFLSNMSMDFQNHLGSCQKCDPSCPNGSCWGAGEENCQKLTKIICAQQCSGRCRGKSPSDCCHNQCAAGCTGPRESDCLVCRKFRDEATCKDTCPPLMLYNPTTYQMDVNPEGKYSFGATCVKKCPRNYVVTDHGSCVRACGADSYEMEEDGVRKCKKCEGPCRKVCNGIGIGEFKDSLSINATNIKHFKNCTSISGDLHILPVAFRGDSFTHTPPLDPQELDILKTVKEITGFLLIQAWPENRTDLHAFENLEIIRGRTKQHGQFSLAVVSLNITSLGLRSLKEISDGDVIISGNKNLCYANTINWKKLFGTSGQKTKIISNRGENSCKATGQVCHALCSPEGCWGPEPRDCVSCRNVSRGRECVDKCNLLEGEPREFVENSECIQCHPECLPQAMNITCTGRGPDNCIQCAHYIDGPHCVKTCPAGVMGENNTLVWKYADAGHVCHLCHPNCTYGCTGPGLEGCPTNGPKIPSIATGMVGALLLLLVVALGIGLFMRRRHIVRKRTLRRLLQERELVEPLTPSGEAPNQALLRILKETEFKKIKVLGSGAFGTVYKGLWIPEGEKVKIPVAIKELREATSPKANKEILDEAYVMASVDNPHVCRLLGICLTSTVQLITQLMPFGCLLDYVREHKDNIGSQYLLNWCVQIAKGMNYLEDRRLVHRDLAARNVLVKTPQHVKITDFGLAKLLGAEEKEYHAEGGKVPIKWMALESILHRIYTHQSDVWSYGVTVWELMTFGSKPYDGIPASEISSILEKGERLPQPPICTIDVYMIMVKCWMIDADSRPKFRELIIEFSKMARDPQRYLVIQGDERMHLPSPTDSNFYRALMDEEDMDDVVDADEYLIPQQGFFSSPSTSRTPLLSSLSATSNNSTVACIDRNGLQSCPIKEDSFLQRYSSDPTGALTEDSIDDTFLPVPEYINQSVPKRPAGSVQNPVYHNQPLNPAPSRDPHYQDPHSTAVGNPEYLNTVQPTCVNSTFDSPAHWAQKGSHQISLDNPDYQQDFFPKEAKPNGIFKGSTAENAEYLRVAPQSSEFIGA

On human EGF-R, `C=CC(=O)Nc1cc2c(Nc3ccc(F)c(Cl)c3)ncnc2cc1OCCCC1CCN(C)CC1` [1(7), 4-[(3-Chloro-4-fluorophenyl)amino]-7-[3-(1-methylpiperidin-4-yl)propyloxy]-6-[(vinylcarbonyl)amino]quinazoline] had a pIC50 of more than 9.30.

For the compound `CC#CC(=O)Nc1cc2c(Nc3cccc(Br)c3)ncnc2cc1OCCCC1CCN(C)CC1` [2(3), 4-[(3-Bromophenyl)amino]-7-[3-(1-methylpiperidin-4-yl)propyloxy]-6-[(1-oxo-2-butyn-1-yl)amino]quinazoline], the negative logarithm of the IC50 (pIC50) against human EGF-R was 9.46.

At human EGF-R, `O=C(C=CCN1CCOCC1)Nc1cc2c(Nc3ccc(F)c(Cl)c3)ncnc2cc1OCC1CC1` [3(1), 4-[(3-Chloro-4-fluorophenyl)amino]-6-{[4-(morpholin-4-yl)-1-oxo-2-buten-1-yl]amino}-7-cyclopropylmethoxyquinazoline] showed a negative-log IC50 (pIC50) of 9.70.

With `C=CC(=O)Nc1cc2c(Nc3cccc(Br)c3)ncnc2cc1OCCCC1CCN(C)CC1` [Example 1, 4-[(3-Bromophenyl)amino]-7-[3-(1-methylpiperidin-4-yl)propyloxy]-6-[(vinylcarbonyl)amino]quinazoline], at human EGF-R, the negative-log IC50 (pIC50) was more than 9.46.

In the case of `CCN(CC)CC=CC(=O)Nc1cc2c(Nc3ccc(F)c(Cl)c3)ncnc2cc1OCC1CC1` [Example 3, 4-[(3-Chloro-4-fluorophenyl)amino]-6-{[4-(N,N-diethylamino)-1-oxo-2-buten-1-yl]amino}-7-cyclopropylmethoxyquinazoline], the melting point was ~ 145 °C (dec.). Also, the pIC50 on human EGF-R is 8.30.

The values are drawn from patent publication US7220750B2, “Bicyclic heterocycles, pharmaceutical compositions containing these compounds, their use and processes for preparing them” (Boehringer Ingelheim Pharma GmbH & Co. KG, priority 1999, dated 2007).
